In one assay the target is MJDCAG78 RNA. The assay can be described thus: Isothermal titration calorimetry binding assay, expanded MJDCAG78 RNA. Conditions: for Kd / KD: ITC at 25° C., 0.7 mM peptide titrated into 0.5 μM MJDCAG78 RNA, one binding site model, mean ± S.E.M.; for improvement of binding affinity to expanded CAG RNA over P3: relative to P3. How it is done: Experiments were carried out using a MicroCal iTC200 isothermal titration calorimeter (GE Healthcare) at 25° C. Data were analyzed using the Origin® scientific plotting software version 7 (Microcal Software Inc.). All RNAs and peptides were dissolved in binding buffer (20 mM MOPS, pH 7.0; 300 mM NaCl) and 0.7 mM of peptide was titrated into 0.5 μM of RNA for each experiment. The concentration of RNA was estimated with appropriate extinction coefficients at 260 nm on a Nanodrop 2000 (Thermo Scientific). A reference power of 8 μcal/s was used with an initial 0.5 μl of injection of peptide followed by 2 μl for all subsequent titrations points with a 60 sec initial equilibrium delay and 150 sec pause between injections. The samples were stirred at a speed of 1000 rpm throughout the experiment. The thermal titration data were fitted to the ‘one binding site model’ to determine the dissociation constant (KD). Each experiment was repeated at least 3 times with consistent results obtained.

The test system of the next assay is DsRedCAG100 flies. Nature of the assay: Pseudopupil assay in DsRedCAG100 Drosophila (expanded CAG RNA neurodegeneration). Format: in vivo. An excerpt: Here the DsRedCAG0/100Drosophila model was utilized to investigate the suppressive effects of the P3 analogs on RNA toxicity. In this model, the CAG repeat is located in the 3′ untranslated region of the DsRed reporter gene-=. The transcribed expanded CAG RNA is not translated into polyQ protein, and thus the toxicity is solely attributed to the expression of DsRedCAG100 RNA. In brief, the expression of expanded CAG RNA causes severe retinal degeneration in the animal that can be quantified by a pseudopupil assay^7. Inhibitors that can suppress neurotoxicity will result in the recovery of the number of rhabdomeres within the ommatidium. To test the derivatives, third instar larvae were fed different amounts of peptide dissolved in sucrose solution for 2 hr and then allowed to culture in standard fly food until the flies were 12 days old, at which time they were sacrificed for the pseudopupil assay.
Flies were raised at 21.5° C. on cornmeal medium supplemented with dry yeast. Fly lines bearing UAS-DsRedCAG0 and UAS-DsRedCAG100 were kind gifts of Professor Nancy Bonini (University of Pennsylvania, USA). The gmr-GAL4 fly line was obtained from Bloomington Drosophila Stock Center. For pseudopupil assay, third instar larvae were fed with various amount of respective peptides dissolved in 2% sucrose solution for 2 hr and then continued to culture in standard fly food at 21.5° C.^38. Pseudopupil assay was performed on 12 day-old adult flies as mentioned previously^39. Images were captured by SPOT Insight CCD camera controlled by the SPOT Advanced software (Diagnostic instruments Inc.). Image processing was performed using the Adobe Photoshop CS software (Adobe). Each experiment was repeated at least 3 times (n=10 fly heads), and consistent results were obtained. For viability test of wild-type flies from egg to adult stage, eggs born within 5 hr were collected and cultured in fly food containing 10 or 50 μM of respective peptides at 21.5° C. Viability from egg-to-adult was calculated as the number of adult flies collected divided by the number of eggs examined. Each experiment was repeated for three times (at least 130 eggs were examined in each group). Two batches of independently synthesized peptides were used in the experiments.

Values joined by “and” are separate entries in the source; they are usually repeats but may differ in a detail not shown here. Equal entries are not always repeated. “Also recorded” adds a separate entry of the source. Starred links: 1 amine or outer side, 2 acyl side, 3 side chain; linkers in the order of their positions; H or OH if unused. Non-standard residues stand in square brackets, D forms with d. No end group written: not given here. gPNA = guanine base linked to N-(2-aminoethyl)-glycine backbone, Nc1nc2c(ncn2CC(=O)N(CCN[*:1])CC(=O)[*:2])c(=O)[nH]1; tPNA = thymine base linked to N-(2-aminoethyl)-glycine backbone, Cc1cn(CC(=O)N(CCN[*:1])CC(=O)[*:2])c(=O)[nH]c1=O; cPNA = cytosine base linked to N-(2-aminoethyl)-glycine backbone, Nc1ccn(CC(=O)N(CCN[*:1])CC(=O)[*:2])c(=O)n1; aPNA = adenine base linked to N-(2-aminoethyl)-glycine backbone, Nc1ncnc2c1ncn2CC(=O)N(CCN[*:1])CC(=O)[*:2]; hArg = N=C(N)NCCCC[C@H](N)C(=O)O; Orn = NCCC[C@H](N)C(=O)O; Dap = NC[C@H](N)C(=O)O; ∗∗ = not defined here

Regarding DGKSKGIAYIEFK [P3V7], on MJDCAG78 RNA, the equilibrium dissociation constant (Kd) was determined as 3.67 ± 0.26 µM.
Same read-out and setting: next, DGKSKGIAYIEAK [P3MT4]: 17 µM and 17.4 µM.
With “Ac-Asp-Gly-(hArg)-Ser-Lys-Gly-Ile-Ala-Tyr-Ile-Glu-Phe-Lys-NH2 (Ac-DG[hArg]SKGIAYIEFK-NH2; SMILES CC[C@H](C)[C@H](NC(=O)CNC(=O)[C@H](CCCCN)NC(=O)[C@H](CO)NC(=O)[C@H](CCCCNC(=N)N)NC(=O)CNC(=O)[C@H](CC(=O)O)NC(C)=O)C(=O)N[C@@H](C)C(=O)N[C@@H](Cc1ccc(O)cc1)C(=O)N[C@H](C(=O)N[C@@H](CCC(=O)O)C(=O)N[C@@H](Cc1ccccc1)C(=O)N[C@@H](CCCCN)C(N)=O)[C@@H](C)CC) [P3V14]”, the KD result at MJDCAG78 RNA was “No binding”.
On the same count and under the same terms, with “Ac-Asp-Gly-Lys-Ser-(Orn)-Gly-Ile-Ala-Tyr-Ile-Glu-Phe-Lys-NH2 (Ac-DGKS[Orn]GIAYIEFK-NH2) [P3V17]” the entry was “No binding”.
Regarding “H-tPNA-Asp-Gly-Lys-Ser-Lys-Gly-Ile-Ala-Tyr-Ile-Glu-Phe-Lys-NH2 ([tPNA]DGKSKGIAYIEFK-NH2; also: N-terminal amino group replaced by hydrogen) [P3V10]”, the Kd on MJDCAG78 RNA was 2.2 µM and 2.24 µM.
As for DGRSRGIAYIEFK [P3V5], at MJDCAG78 RNA, the Kd was ~0.86 µM and 0.86 µM; the “improvement of binding affinity to expanded CAG RNA over P3” value (from here on “improvement of binding affinity … over P3”) is roughly 10 fold. In the assay on DsRedCAG100 flies (1 μM treatment, 12 day-old flies), the pseudopupil score is on record as 3.64±0.22. In addition, the “suppression of neurotoxicity / retinal degeneration” value with DsRedCAG100 flies (DsRedCAG100 flies, in words) was “significantly suppressed neurotoxicity”.
Take DGKSKGIAYIEYK [P3V3]: on MJDCAG78 RNA, binding was put at a Kd of 1.74 ± 0.67 µM and the “improvement of binding affinity … over P3” value is roughly 2 fold.
Take “Ac-Asp-Gly-Lys-Ser-(Dap)-Gly-Ile-Ala-Tyr-Ile-Glu-Phe-Lys-NH2 (Ac-DGKS[Dap]GIAYIEFK-NH2; SMILES CC[C@H](C)[C@H](NC(=O)CNC(=O)[C@H](CN)NC(=O)[C@H](CO)NC(=O)[C@H](CCCCN)NC(=O)CNC(=O)[C@H](CC(=O)O)NC(C)=O)C(=O)N[C@@H](C)C(=O)N[C@@H](Cc1ccc(O)cc1)C(=O)N[C@H](C(=O)N[C@@H](CCC(=O)O)C(=O)N[C@@H](Cc1ccccc1)C(=O)N[C@@H](CCCCN)C(N)=O)[C@@H](C)CC) [P3V19]”: the KD result on MJDCAG78 RNA was “No binding”.
Take “H-gPNA-**-Lys-Ser-Lys-Gly-Ile-Ala-Tyr-Ile-Glu-Phe-Lys-NH2 (H-[gPNA]KSKGIAYIEFK-NH2; not fully specified (residue 1); printed as H-gPNA-**-Lys-Ser-Lys-Gly-Ile-Ala-Tyr-Ile-Glu-Phe-Lys-NH2; also: N-terminal amino group replaced by hydrogen) [P3V26]”: at MJDCAG78 RNA, the dissociation constant (Kd) turned out to be 8.85 ± 2.85 µM.
“H-tPNA-**-Lys-Ser-Lys-Gly-Ile-Ala-Tyr-Ile-Glu-Phe-Lys-NH2 (H-[tPNA]KSKGIAYIEFK-NH2; not fully specified (residue 1); printed as H-tPNA-**-Lys-Ser-Lys-Gly-Ile-Ala-Tyr-Ile-Glu-Phe-Lys-NH2; also: N-terminal amino group replaced by hydrogen) [P3V11]” returned a dissociation constant (Kd) on MJDCAG78 RNA of 0.12 µM.
With “DGKSKGIAYIEFKGDGKSKGIAYIEFK [P3V21, linear dimer of P3V8]”, on MJDCAG78 RNA, the KD entry is given as “did not show any binding; also recorded: No binding”.
Same read-out and setting: with “H-Asp-Gly-Lys-Ser-Lys-Gly-Ile-Ala-Tyr-Ile-Glu-Phe-Lys-tPNA-NH2 (DGKSKGIAYIEFK[tPNA]-NH2; also: Asp N-terminal amino group replaced by hydrogen) [P3V22]” the entry was “No binding”; with “Ac-Asp-Gly-(Orn)-Ser-Lys-Gly-Ile-Ala-Tyr-Ile-Glu-Phe-Lys-NH2 (Ac-DG[Orn]SKGIAYIEFK-NH2) [P3V16]”, “No binding”.
Regarding “Ac-Asp-Gly-(Dap)-Ser-Lys-Gly-Ile-Ala-Tyr-Ile-Glu-Phe-Lys-NH2 (Ac-DG[Dap]SKGIAYIEFK-NH2; SMILES CC[C@H](C)[C@H](NC(=O)CNC(=O)[C@H](CCCCN)NC(=O)[C@H](CO)NC(=O)[C@H](CN)NC(=O)CNC(=O)[C@H](CC(=O)O)NC(C)=O)C(=O)N[C@@H](C)C(=O)N[C@@H](Cc1ccc(O)cc1)C(=O)N[C@H](C(=O)N[C@@H](CCC(=O)O)C(=O)N[C@@H](Cc1ccccc1)C(=O)N[C@@H](CCCCN)C(N)=O)[C@@H](C)CC) [P3V18]”, on MJDCAG78 RNA, the KD result is on record as “No binding”.
DGASKGIAYIEFK [P3MT1] displayed a dissociation constant (Kd) on MJDCAG78 RNA of 31.3 ± 8.29 µM.
Same read-out and setting: with DGKSKGIAAIEFK [P3MT3] the figure was 16 µM and 16.6 µM.
In turn, “H-cPNA-gPNA-tPNA-Asp-Gly-Lys-Ser-*-Gly-Ile-Ala-Tyr-Ile-Glu-Phe-Lys-NH2 (H-[cPNA][gPNA][tPNA]DGKSGIAYIEFK-NH2; not fully specified (residue 7); printed as H-cPNA-gPNA-tPNA-Asp-Gly-Lys-Ser-*-Gly-Ile-Ala-Tyr-Ile-Glu-Phe-Lys-NH2; also: N-terminal amino group replaced by hydrogen) [P3V13]” showed a Kd on MJDCAG78 RNA of 10.8 ± 3.08 µM.
Still for that read-out and setting: next, “H-Asp-Gly-Lys-Ser-Lys-Gly-Ile-tPNA-*-Ile-Glu-Phe-Lys-NH2 (H-DGKSKGI[tPNA]IEFK-NH2; not fully specified (residue 8); also: Asp N-terminal amino group replaced by hydrogen) [P3V12]”: 9.93 ± 2.19 µM; DGKSAGIAYIEFK [P3MT2]: 100 µM and 101 µM; “H-Asp-Gly-Lys-Ser-Lys-Gly-Ile-Ala-Tyr-Ile-Glu-Phe-Lys-tPNA-cPNA-gPNA-NH2 (DGKSKGIAYIEFK[tPNA][cPNA][gPNA]-NH2; also: Asp N-terminal amino group replaced by hydrogen) [P3V23]”: 233 ± 98.9 µM.
Regarding “Asp-(d-Ala)-Lys-Ser-Lys-Gly-Ile-Ala-Tyr-Ile-Glu-Phe-Lys (D[dA]KSKGIAYIEFK) [P3V1]”, the “improvement of binding affinity … over P3” value in the assay on MJDCAG78 RNA is given as 4 fold.
As for DGKSKGIAWIEFK [P3V2], the Kd at MJDCAG78 RNA was 2.2 µM and 2.21 µM.
On the same count and under the same terms, next, DGRSRGIAYIEFK [P3V9]: 2.34 ± 0.49 µM.
Turning to DGKSKGIAYIEWK [P3V4], on MJDCAG78 RNA, the Kd came out at 4.44 ± 0.47 µM and the “improvement of binding affinity … over P3” value was roughly 4 fold.
“Ac-Asp-Gly-Lys-Ser-(hArg)-Gly-Ile-Ala-Tyr-Ile-Glu-Phe-Lys-NH2 (Ac-DGKS[hArg]GIAYIEFK-NH2; SMILES CC[C@H](C)[C@H](NC(=O)CNC(=O)[C@H](CCCCNC(=N)N)NC(=O)[C@H](CO)NC(=O)[C@H](CCCCN)NC(=O)CNC(=O)[C@H](CC(=O)O)NC(C)=O)C(=O)N[C@@H](C)C(=O)N[C@@H](Cc1ccc(O)cc1)C(=O)N[C@H](C(=O)N[C@@H](CCC(=O)O)C(=O)N[C@@H](Cc1ccccc1)C(=O)N[C@@H](CCCCN)C(N)=O)[C@@H](C)CC) [P3V15]”: the KD result at MJDCAG78 RNA is “No binding”.
Substance “Hi-cPNA-**-Lys-Ser-Lys-Gly-Ile-Ala-Tyr-Ile-Glu-Phe-Lys-NH2 (H-[cPNA][∗∗]KSKGIAYIEFK-NH2; not fully specified; printed as Hi-cPNA-**-Lys-Ser-Lys-Gly-Ile-Ala-Tyr-Ile-Glu-Phe-Lys-NH2; reading uncertain; also: N-terminal amino group replaced by hydrogen) [P3V24]” showed a dissociation constant (Kd) on MJDCAG78 RNA of 0.96 µM.
Same read-out and setting: with DGKSKGIAYIEFA [P3MT5] the figure was 51 µM and 51.3 µM.
For the substance “DGKSKGIAYIEFKDGKSKGIAYIEFK [P3V20, linear dimer of P3V8]”, the KD result at MJDCAG78 RNA is given as “did not show any binding; also recorded: No binding”.
“H-aPNA-**-Lys-Ser-Lys-Gly-Ile-Ala-Tyr-Ile-Glu-Phe-Lys-NH2 (H-[aPNA]KSKGIAYIEFK-NH2; not fully specified (residue 1); printed as H-aPNA-**-Lys-Ser-Lys-Gly-Ile-Ala-Tyr-Ile-Glu-Phe-Lys-NH2; also: N-terminal amino group replaced by hydrogen) [P3V25]” had a dissociation constant (Kd) on MJDCAG78 RNA of 8.28 ± 2.27 µM.
The same measure, in the same setting: next, “H-cptPNA-**-Lys-Ser-Lys-Gly-Ile-Ala-Tyr-Ile-Glu-Phe-Lys-NH2 (H-XKSKGIAYIEFK-NH2; not fully specified (residue 1); printed as H-cptPNA-**-Lys-Ser-Lys-Gly-Ile-Ala-Tyr-Ile-Glu-Phe-Lys-NH2; also: N-terminal amino group replaced by hydrogen) [P3V27]”: 11.2 ± 4.37 µM.
DGRSRGIAYIEFR [P3V6]: the dissociation constant Kd at MJDCAG78 RNA is 23 µM and 23.3 µM.

The values above are taken from patent US10570177B2, “P3 peptidylic inhibitors for treating CAG-repeat RNA toxicity in polyglutamine diseases” (The Chinese University of Hong Kong, priority 2017, dated 2020).
